Measurements from a melting point compilation (Tetko et al.; mined from patent text by program, amines drawn as free bases though some values may be those of a salt).

melting point [°C] | SMILES
114 to 115 | CCCc1c(OCCCCc2nnn[nH]2)ccc(C(C)=O)c1O
185 to 187 | COC(=O)c1ccc(CNS(C)(=O)=O)cc1S(N)(=O)=O
213 to 215 | CN(C)/C=C/C(=C(C#N)C#N)c1ccc2cc(N(C)C)ccc2c1
216 to 220 | CCCc1c(OCc2cccc(C(=O)O)c2)ccc(C(C)=O)c1O
170 to 171 | COc1cc(OC)c2c(=O)c3ccccc3oc2c1
169 | Nc1nc2ccccc2c2c1ncn2CCNC(=O)CCCCC1SCC2NC(=O)NC21 (stereo not drawn)
206 to 210 | Cc1cc(I)ccc1Nc1c(C(=O)O)cc(F)c(F)c1F
100 | CC(=O)Oc1ccc(-c2ccc(C(C)=O)cc2)cc1Br
150 | CC(C(=O)O)c1ccc(C(=O)c2cc3ccsc3s2)cc1 (stereo not drawn)
> 300 | CC(C)n1nc(-c2c(-c3ccccc3)nc(N)nc2N2CCCC2)ccc1=O
250 | O=C(O)CNC(=O)C(Cc1ccccc1)P(=O)(O)O (stereo not drawn)
282 to 284 | COc1cc(C(=O)O)ccc1OC(=O)c1ccc(OC)c(C23CC4CC(CC(C4)C2)C3)c1
157 to 158 | CCOC(=O)COc1ccc(N)cc1
164 to 165 | CC(C)n1c(=O)n(C)c(=O)c2c(S(=O)CCCO)n(C3Cc4ccccc4C3)cc21 (stereo not drawn)
189 to 192 | CC(=O)NCC1CC1c1c(C#N)ccc2nn(C)cc12 (stereo not drawn)
188 to 190 | O=C(O)Cc1ccc2c(c1)C(=O)c1ccc(Cl)cc1CO2
138 to 139 | O=Cc1cn(Cc2ccc(OCc3ccccc3)cc2)nc1OCc1ccc(OCc2ccccc2)cc1
102 to 104 | Cc1ncoc1C(C)(O)c1ccccc1 (stereo not drawn)
154 to 155 | Cc1nn(-c2ccccn2)c2ncc(C(=O)N(C)c3ccccc3)c(Cl)c12
124 to 128 | O=C(O)c1ccccc1C(=O)c1ccc(O)cc1
125 to 127 | FC(F)(F)c1cccnc1OCc1ccnc2cc(Cl)ccc12
128 to 131 | CCc1cccc(CNC[C@@H](O)[C@H](Cc2cc(F)cc(F)c2)NC(=O)c2ccc(CS(C)(=O)=O)s2)c1
200 to 201 | O=C(O)CCCOc1ccc2cc(-c3ccc4ccc(Cl)cc4n3)oc2c1

melting point [°C] | SMILES
172 to 173 | CCOC(=S)c1cnc(C)nc1NC(=O)Nc1ccccc1Cl
214 to 216 | NC(=O)c1cc2c(Oc3ccc(C(=O)NCCN4CCOCC4)cc3)cncc2s1
145 to 147 | CCN(CCNS(=O)(=O)c1ccc(C)cc1)C(=O)c1ccccc1C(=O)c1ccc(Cl)cc1
144 | Cc1ccc(C#CC(C)N(O)C(N)=O)cc1 (stereo not drawn)
212 to 213 | O=C(O)CS(=O)(=O)c1ccc2c(-c3ccc(Cl)cc3)noc2c1Cl
74 to 75 | O=[N+]([O-])CS(=O)(=O)c1ccc(F)cc1F
141 to 145 | COC(=O)[C@H](Cc1cc(Cl)c(OCc2cccc3cc(-c4ccccc4)oc23)c(Cl)c1)NC(=O)C(F)(F)F
119 to 120 | O=C1OC(COc2ccc(CCCO)cc2)CN1c1ccc(Cl)cc1 (stereo not drawn)
322 to 323 | O=c1[nH]c(-c2ccc(F)cc2)nc2ccc(CN3CCOCC3)cc12
123 to 125 | CN1c2ccccc2N(Cc2ccccc2)C(=O)[C@H]2CCC[C@H]21 (relative stereo)
295 | COc1ccc(-c2[nH]nc3c2C(=O)c2c(NC(=O)CN4CCOCC4)cccc2-3)cc1
167 to 169 | COC(=O)c1ccc2c(c1)Sc1ccc(C(C)N(O)C(N)=O)cc1CC2 (stereo not drawn)
211 to 214 | CC(C)Oc1ccc(-c2nn(C(C)c3oc4cccc(N5CCOCC5)c4c(=O)c3-c3ccccc3)c3ncnc(N)c23)cc1F (stereo not drawn)
62 to 64 | CCOC(=O)CNC(=O)OCc1ccc(OC(C)=O)c(OC)c1
79 to 80 | CC(C)(C)N[C@H](Cc1ccccc1)C(=O)O
91 to 92 | CCCCCCCCCCCCSCCCN=C=O
> 275 | COc1cccc(-n2c(-c3sc(Nc4ccccc4)nc3C)nc3ccccc3c2=O)c1
132 to 135 | COC(=O)C(Cc1ccc(O)c(O)c1)NC(=O)OC(C)(C)C (stereo not drawn)
98 to 99 | Cc1cc(O)cc(Br)c1C
243 to 246 | CS(=O)c1c[nH]c2c(Sc3nc4cc(Cl)ccc4[nH]3)ccc([N+](=O)[O-])c12 (stereo not drawn)
113 to 114 | Cn1c(C(F)(F)F)ccc(-c2cc(NS(C)(=O)=O)c(Cl)cc2F)c1=O
173 to 174 | COc1cc(C(C)C)c2c(c1)S(=O)(=O)N(COc1cc(C(F)(F)F)nn1-c1ccc(Cl)cn1)C2=O
275 to 277 | O=c1[nH]c2ncc(-c3ccc(CO)cc3)nc2n1CC1CCCCC1

melting point [°C] | SMILES
> 240 | CON1CCC2(CC1)NC(=O)C(c1c(C)cc(C#C[Si](C)(C)C)cc1C)=C2O
188 to 189 | Cn1cnc2c3ncc(Cl)cc3ccc21
205 | CN1Cc2cc(C(O)CN3CCC(COc4ccccc4)CC3)ccc2NC1=O (stereo not drawn)
180 to 181 | COC(=O)C1=C(CC(=O)N2CCN(C)CC2)NC(CS(=O)c2ccccc2Cl)=C(C(=O)OC)C1c1c(Cl)cccc1Cl (stereo not drawn)
208 | O=C(CC1CCN(CCCn2c(=O)[nH]c3ccccc32)CC1)c1ccc(F)cc1
160 to 162 | O=C(c1ccccc1)c1cc(O)ccc1O
109 to 111 | CCCCN1CCN(c2nc(C)c(C(=O)NCc3cccnc3)s2)C1=O
253 | N=C(NC1CC1)c1cc2c(cn1)[nH]c1ccccc12
134 to 135 | CCCN1C(=O)C2CC(c3ccc(N(C)C)cc3)(C2)C1=O
93 to 105 | CNCCNCc1ccc(-c2cc3ncnc(Nc4ccc5[nH]ccc5c4)c3s2)cc1
107 to 108 | C[C@@H](O)CNC(=O)N1CC(c2ccc(C(F)(F)F)cc2)C1
133 | CCCCCCOc1ccc(-c2ncc(C#N)c(Cl)n2)cc1
226 to 228 | CN(CC(=O)O)S(=O)(=O)c1ccc(-c2ccc(NC(=O)c3cc4ccccc4o3)cc2)cc1
162 to 163 | CC(C)(C)C(=O)OCOC(=O)[C@H]1C[C@H](NC(=O)Cc2ccccc2)c2c(Cl)cc(Cl)cc2N1 (relative stereo)
282 | CCCC(=O)Nc1cccc2c1C(=O)c1c-2n[nH]c1-c1ccc(OC)cc1
187 to 189 | Oc1ccc(Oc2ccc(Oc3ccc(O)cc3)cc2)cc1
286 to 288 | COc1cccc(Cl)c1-c1cc2c(c3c1C(=O)NC3=O)c1cc(O)ccc1n2CCCBr
170 to 172 | COc1cc(/C=C/C(=O)CC(=O)c2ccc(O)c(OC)c2)ccc1O
142 to 143 | FC(F)(F)c1cc(Nc2ccc3[nH]ccc3c2)nc(-c2cccnc2)n1
227 | N#Cc1ccc(-c2ccc(O)c(C(=O)O)c2)cc1
128 to 131 | CCCCCCCCCCCCCCOc1ccc(CC(=O)Nc2cccc(-c3nccs3)c2)cc1
109 to 110 | CCNc1cccnc1N(CC)CC1CCN(C(=O)c2ccc[nH]2)CC1
235 to 243 | CC1(C)CC(Nc2nc(NC3CC(C)(C)NC(C)(C)C3)nc(N(C3CC(C)(C)NC(C)(C)C3)C3CC(C)(C)NC(C)(C)C3)n2)CC(C)(C)N1

melting point [°C] | SMILES
120 to 121 | N#CCc1cccc(Cn2ccc(OCc3ccc(F)cc3F)c(Br)c2=O)c1
84 to 85 | CC(=O)OCC(O)(CN(C)S(=O)(=O)c1cc(C)ccc1C)c1ccccc1 (stereo not drawn)
166 | O=c1cc(C(F)(F)F)[nH]n1-c1cccc([N+](=O)[O-])c1
223 to 225 | CCOc1cc(-c2nnc3c4ccccc4c(OCc4ncnn4C)nn23)no1
84 to 85 | COCOc1cc2c(cc1C=O)C(C)(C)CCC2(C)C
139 to 141 | Cc1nc(-n2cc(Cc3ccccc3)nn2)sc1C(=O)NCc1ccccc1
296 to 297 | O=C1c2cc(I)ccc2-n2c1nc1ccccc1c2=O
198 | CC1(C(=O)c2c[nH]c3ncc(Br)nc23)CCCCCC1
255 to 256 | O=C(c1ccccc1)c1nc2cnc3ccc(F)cc3c2[nH]1
92 to 94 | C=CC(=O)OCCN(CCOC(=O)C=C)c1ccc(N=Nc2snc(C)c2C#N)c(NC(=O)C(C)C)c1
160 to 163 | CN1CCN(CCCNc2sc(-c3cc[nH]n3)c3c2C(=O)CC(C)(C)C3)CC1
104 to 105 | COC(=O)c1c(OCc2ccccc2)ccc2c1CC[C@H](NC(C)(C)C)[C@@H]2O (relative stereo)
194 to 197 | CN1CCN(C(=O)C2CCC(Nc3ncc4ncnc(Nc5ccc(F)c(Cl)c5)c4n3)CC2)CC1 (stereo not drawn)
178 to 181 | Cn1c2c(c3ccc(-n4ccc(OCc5ccccc5)cc4=O)cc31)CNCCC2
300 | N#Cc1c(O)csc1N
69 to 74 | CCn1c2ccc(C)cc2c2c3ccccc3ccc21
143 to 144 | CCOC(=O)c1ccc(F)c(-c2cccc3cc(CBr)sc23)c1
130 to 132 | CCc1nc2nc3cc(Cl)ccc3nc2n1C(=O)c1ccccc1Br
78 to 80 | COc1cccc([N+](=O)[O-])c1NC(=O)OCc1ccccc1
99 to 104 | CC1=C(c2ccc(OCC(C)NCC(O)c3cccc(Cl)c3)cc2)CCC(=O)N1 (stereo not drawn)
119 to 121 | CN1CCN(C2=Cc3cc(Cl)ccc3Oc3ccccc32)CC1
122 to 123 | CC(C)(C)c1cc(C2=Cc3cc(-c4ccccc4)ccc3C2)cc(C(C)(C)C)c1
166 to 169 | Nc1nc(-n2cc(C(=O)O)c(=O)c3cc(F)c(NCC(O)CO)c(Cl)c32)c(F)cc1F (stereo not drawn)

SMILES | melting point [°C]
CN1CCN(Cc2nc(C(N)=O)nn2-c2ccc(Cl)cc2C(=O)c2ccccc2Cl)CC1 | 167 to 169
CCN(C)C(=O)Nc1ccc2c(c1)C(c1ccccc1F)=NCC(=O)N2C | 165 to 168
O=C1CCOC(N2CCN=C(c3ccccc3Cl)c3cc(Cl)ccc32)=N1 | 124 to 135
C(=C1/CCCc2ccccc21)/c1cnc[nH]1 | 136 to 138
CN(C)C(=O)Oc1c(N2CCCC2)c(=O)n(-c2ccccc2)c2ncccc12 | 218 to 220
O=C(O)C1CC2CCC1c1[nH]c3ccccc3c12 (stereo not drawn) | 212 to 214
